Blank lines part the entries; values can stand above or below the molecule they belong to.
Assays:
[1] = biological target: A2 receptors of human platelets (Homo sapiens, UniProt P29274); assay: Antagonism of NECA-induced stimulation of adenylate cyclase activity of human platelet membranes; assay type: biochemical; settings: for antagonist potency at platelet A2 receptor: human platelet membranes, NECA-stimulated adenylate cyclase, result in words; for potency at platelet A2 receptor relative to PC12 A2 receptor: human platelets versus rat PC12 cells
Description: (§1) Human platelet, rat pheochromocytoma (PC12) cell, rat fat cell and rat cerebral cortex membranes were prepared as described (4,5,6). Adenylate cyclase activity and binding [^3 H]PIA to cerebral cortex membranes were determined essentially as described (4,5,6). KB values for the compounds were determined as described (4). […] EC50 and IC50 values for the agonists were obtained from the concentration-response curves by linear regression after logit-log transformation. KB values of the antagonists were calculated using the Schild equation KB =C/(CR-1), where C denotes the concentration of the competitor and CR the ratio of the EC50 and IC50 values in the presence and absence, respectively, of the competitor. IC50 of the compounds for inhibition of [^3 H]PIA binding to cerebral cortex membranes were transformed into Ki values as described (6).
In these cells, A2 receptor-mediated stimulation of adenylate cyclase results in an inhibition of aggregation (5,7).

[2] = biological target: T1, A1 receptors of rat fat cells (Rattus norvegicus, UniProt P25099); assay: Antagonism of R-PIA-induced inhibition of rat fat cell adenylate cyclase activity; assay type: biochemical; settings: rat fat cell membranes, result in words
T1 sequence (P25099 1-326): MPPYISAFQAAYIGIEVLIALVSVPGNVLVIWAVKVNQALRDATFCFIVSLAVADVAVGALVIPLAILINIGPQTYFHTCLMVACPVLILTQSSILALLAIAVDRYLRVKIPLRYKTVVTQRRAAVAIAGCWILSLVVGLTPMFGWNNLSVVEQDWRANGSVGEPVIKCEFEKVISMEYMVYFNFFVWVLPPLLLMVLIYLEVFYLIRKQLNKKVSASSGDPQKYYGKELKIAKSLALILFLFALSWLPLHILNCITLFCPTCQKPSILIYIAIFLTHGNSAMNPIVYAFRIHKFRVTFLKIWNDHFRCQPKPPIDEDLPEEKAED
Description: as §1

A1 receptors = biological target: T2, A1 receptors (Rattus norvegicus, UniProt P25099); assay: Activity at A1 adenosine receptors (overall, fat cells and brain membranes); assay type: biochemical; settings: discussion, fat cell and brain data
T2 sequence (P25099 1-326): T1 sequence (P25099 1-326)
Description: as §1

[3] = biological target: T3, A1 adenosine receptor (guinea pig atrium) (Cavia porcellus, UniProt P47745); assay: Antagonism of adenosine agonists in isolated guinea pig left atrium (force of contraction); settings: guinea pig atria; for antagonism of adenosine agonists in atria: result in words
T3 construct: The left atria from male guinea pigs were isolated; from tissue; host or cells: left atria of male guinea pigs
T3 sequence (P47745 1-326): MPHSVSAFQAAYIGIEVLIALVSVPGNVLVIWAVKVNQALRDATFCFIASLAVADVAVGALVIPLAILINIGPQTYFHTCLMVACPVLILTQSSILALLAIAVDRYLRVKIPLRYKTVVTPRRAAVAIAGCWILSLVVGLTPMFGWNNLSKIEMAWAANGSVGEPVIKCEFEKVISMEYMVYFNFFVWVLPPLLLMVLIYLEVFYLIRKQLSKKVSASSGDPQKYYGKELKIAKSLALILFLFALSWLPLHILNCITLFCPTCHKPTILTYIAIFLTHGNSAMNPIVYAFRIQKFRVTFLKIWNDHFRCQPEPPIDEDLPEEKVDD
Description: The left atria from male guinea pigs were isolated, suspended between two punctate electrodes, and placed in a 20 ml organ bath that contained Krebs-Hensileit solution that was continuously gassed with 95% O2 + 5% CO2 and maintained at 31° C. The resting tension was one gram. Theatria were stimulated electrically at 1 hz, 1 ms duration pulses at supramaximal voltage. The force of contraction was recorded isometrically.
(§2) The ability of the compounds to antagonize the effects of agonists was analyzed using modified Schild plots.

[4] = tested on: A2 adenosine receptor (guinea pig taenia caecum); assay: Antagonism of adenosine agonists in isolated guinea pig taenia caecum (contractile tone); settings: for antagonism of adenosine agonists in taenia caecum: guinea pig taenia caecum relaxation; for sensitization of the tissue: guinea pig taenia caecum, high concentrations
Description: Taenia from the guinea pig caecum were cut into lengths of 1.5-2 cm. The tissues were suspended in a 20 ml organ bath containing de Jalon's solution that was gassed with 95% O2 + 5% CO2 and maintained at 31° C. The resting tension was 1.5 g. The contractile response was measured isotonically.
as §2

[5] = tested on: A1 and A2 adenosine receptors; assay: Activity at adenosine receptors, A1 versus A2 selectivity (overall); assay type: biochemical; settings: for receptor selectivity A1 versus A2: in words; for stereoselectivity: A1 and A2 receptors
Description: as §1

Chain of A2 receptors of human platelets (P29274 whole entry): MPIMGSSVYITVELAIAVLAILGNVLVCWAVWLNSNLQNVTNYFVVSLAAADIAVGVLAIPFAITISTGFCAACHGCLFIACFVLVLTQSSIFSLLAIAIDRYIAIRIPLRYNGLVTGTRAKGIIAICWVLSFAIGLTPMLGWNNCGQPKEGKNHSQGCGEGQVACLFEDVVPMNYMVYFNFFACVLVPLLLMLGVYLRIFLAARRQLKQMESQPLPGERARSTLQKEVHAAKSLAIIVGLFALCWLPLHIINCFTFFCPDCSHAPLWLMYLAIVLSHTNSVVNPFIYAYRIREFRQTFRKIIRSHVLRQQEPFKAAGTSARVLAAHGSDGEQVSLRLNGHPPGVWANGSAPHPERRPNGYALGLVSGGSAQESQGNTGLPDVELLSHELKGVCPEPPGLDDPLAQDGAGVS

SMILES: CNc1ncnc2c1ncn2C [Example 7, N^6 -Methyl-9-MA]
antagonist potency at platelet A2 receptor [1]: much less potent than 9-methyladenine
antagonist potency at A1 receptors of fat cells [2]: less potent than 9-methyladenine
activity at A1 receptors, in words (A1 receptors): reduces activity

antagonist potency at platelet A2 receptor [1]: more potent
antagonist potency at platelet A2 receptor ([1]; listed as 3-pentyl-): enhance activity
antagonist potency at A1 receptors of fat cells [2]: more potent than the aprent compound
basal force of contraction in the atria [3]: increases in basal force of contraction
antagonism of adenosine agonists in atria [3]: competitive antagonists
SMILES: CCC(CC)Nc1ncnc2c1ncn2C [Example 8, N^6-3-Pentyl-9-MA]
potency at platelet A2 receptor relative to PC12 A2 receptor [1]: more potent at the platelet A2 receptor than at the PC12 A2 receptor
antagonism of adenosine agonists in taenia caecum [4]: did not competitively antagonize the effects of adenosine agonists
sensitization of the tissue [4]: some sensitization of the tissue

SMILES: Cn1c(=O)c2[nH]c(-c3ccccc3)nc2n(C)c1=O [Example 8-PT, 8-phenyltheophylline, reference compound]
antagonism of adenosine agonists in taenia caecum [4]: did antagonize the effects of agonists at low concentrations
sensitization of the tissue [4]: sensitization effect is also observed
receptor selectivity A1 versus A2 [5]: nonselective adenosine receptor antagonist

antagonist potency at platelet A2 receptor [1]: equipotent to 9-methyladenine
SMILES: Cn1cnc2c(Nc3ccccc3)ncnc21 [Example 9, N^6 -Phenyl-9-MA]
potency at platelet A2 receptor relative to PC12 A2 receptor [1]: more potent at the platelet A2 receptor than at the PC12 A2 receptor
antagonist potency at A1 receptors of fat cells [2]: more potent than 9-methyladenine in the fat cell

SMILES: Cn1cnc2c(Nc3ccccc3F)ncnc21 [Example 10, N^6-2-Fluorophenyl-9-MA]
antagonist potency at platelet A2 receptor [1]: increases potency
antagonist potency at platelet A2 receptor ([1]; listed as 2-fluorophenyl-): enhance activity
antagonist potency at A1 receptors of fat cells [2]: more potent than 9-methyladenine in the fat cell

antagonist potency at platelet A2 receptor [1]: less potent than 9-methyladenine
activity at A1 receptors, in words (A1 receptors): modest activity
SMILES: Cn1cnc2c(NCc3ccccc3)ncnc21 [Example 11, N^6 -Benzyl-9-MA]

antagonist potency at platelet A2 receptor [1]: less potent than 9-methyladenine
antagonist potency at A1 receptors of fat cells [2]: much less potent
SMILES: Cn1cnc2c(NCCc3ccccc3)ncnc21 [Example 12, N^6-2-Phenethyl-9-MA]

antagonist potency at platelet A2 receptor [1]: as potent as 9-methyladenine
receptor selectivity A1 versus A2 [5]: selectivity for A2 receptors
SMILES: COc1cc(CCNc2ncnc3c2ncn3C)cc(OC)c1OC [Example 13]

antagonist potency at platelet A2 receptor [1]: less potent than 9-methyladenine
SMILES: Cn1cnc2c(NCCc3cccnc3)ncnc21 [Example 14, N^6-2-(3-Pyridylethyl)-9-MA]

antagonist potency at platelet A2 receptor [1]: somewhat more potent
antagonist potency at platelet A2 receptor ([1]; listed as 2-(3 -thienylethyl)-): enhance activity
SMILES: Cn1cnc2c(NCCc3ccsc3)ncnc21 [Example 15, N^6-2-(3-Thienylethyl)-9-MA]
antagonist potency at A1 receptors of fat cells [2]: more potent than 9-methyladenine itself in the fat cell

antagonist potency at platelet A2 receptor [1]: more potent than the S-isomer
antagonist potency at platelet A2 receptor ([1]; listed as R-1-phenyl-2-propyl-): enhance activity
SMILES: C[C@H](Cc1ccccc1)Nc1ncnc2c1ncn2C [Example 16, N^6 - -- R-1-Phenyl-2-propyl-9-MA]
antagonist potency at A1 receptors of fat cells [2]: more potent than the parent compound at A1 receptors of fat cells
stereoselectivity [5]: exhibit stereoselectivity at both A1 and A2 receptors

SMILES: C[C@@H](Cc1ccccc1)Nc1ncnc2c1ncn2C [Example 17, N^6 - -- S-1-Phenyl-2-propyl-9-MA]
antagonist potency at A1 receptors of fat cells [2]: more potent than the parent compound at A1 receptors of fat cells
stereoselectivity [5]: exhibit stereoselectivity at both A1 and A2 receptors

basal force of contraction in the atria [3]: increases in basal force of contraction
antagonism of adenosine agonists in atria [3]: competitive antagonists
SMILES: CCC(Cc1cccs1)Nc1ncnc2c1ncn2C (centres unmarked) [Example 23]

— US5066655A (priority 1989, dated 1991)
